# Patent US7754715B2, “Sustained-release oral molsidomine composition for treating atherosclerosis” (Therabel Pharmaceuticals Limited, priority 2004, dated 2010)
# Entries after “also recorded” stand apart in the source; their conditions may differ.
# How the values were obtained:
# [1] = tested on: ICAM-1s (circulating soluble ICAM-1); experiment: Circulating soluble ICAM-1 in serum (ELISA) in long-term clinical study of patients with stable angina pectoris; format: in vivo, human; settings: for concentration of ICAM-1s, Mean ± SD: 4 weeks double-blind
# Experimental: This study comprised 3 consecutive phases: • a 7-day pre-study under placebo; • a 4-week double-blind and double-placebo randomized crossover study during which the patients received alternately (2×2 weeks) a molsidomine-based formulation containing an 8 mg dose, currently marketed in Belgium under the name Corvatard® (2 daily dosage units), and a molsidomine-based formulation containing a 16 mg dose, effective over 24 hours, currently marketed in Belgium under the name Coruno® (1 daily dosage unit); and • a 12-month study during which the 172 patients received a molsidomine-based formulation containing a 16 mg dose, currently marketed in Belgium under the name Coruno®. Also, and of greatest importance, the concentrations of ICAM-1s were measured after each of the three phases of the study, the first measurement constituting the baseline. More precisely, the concentrations of ICAM-1s were measured as follows: Blood samples (5 ml) were taken in non-heparinized tubes. These samples were kept at room temperature and then centrifuged. The serum was separated off and immediately frozen at −20° C. until required for analysis. The circulating ICAM-1 was measured using a commercially available ELISA test (R&D Systems Europe).
# [2] = Weekly frequency of angina attacks and of consumption of s.l. ISDN 5 mg tablets in clinical study; format: in vivo, human
# Experimental: This study comprised 3 consecutive phases: • a 7-day pre-study under placebo; • a 4-week double-blind and double-placebo randomized crossover study during which the patients received alternately (2×2 weeks) a molsidomine-based formulation containing an 8 mg dose, currently marketed in Belgium under the name Corvatard® (2 daily dosage units), and a molsidomine-based formulation containing a 16 mg dose, effective over 24 hours, currently marketed in Belgium under the name Coruno® (1 daily dosage unit); and • a 12-month study during which the 172 patients received a molsidomine-based formulation containing a 16 mg dose, currently marketed in Belgium under the name Coruno®. It is pointed out that, during the second phase of the study, the concomitant use of other antianginal drugs was prohibited with the exception of sublingual (s.l.) isosorbide dinitrate (ISDN) 5 mg in tablet form, which could be consumed ad libitum to alleviate the symptoms of anginal pain. In the course of this study, the weekly frequency of angina attacks and the weekly frequency of consumption of s.l. ISDN 5 mg tablets were noted.
# [3] = 4-week treatment, versus baseline
smiles,measurement,setting,value
CCOC(=O)[N-]c1cn(N2CCOCC2)n[o+]1 [molsidomine],effect on the levels of circulating ICAM-1s,[1]; 4-week treatment (16 mg o.a.d. or 8 mg b.i.d.),no effect; also recorded: did not cause any effect
same,"concentration of ICAM-1s, Mean ± SD","[1]; alcohol <1 glass/day, N=161",276 ± 89 ng/mL
same,"concentration of ICAM-1s, Mean ± SD","[1]; alcohol ≧1 glass/day, N=11",242 ± 38 ng/mL
same,"concentration of ICAM-1s, Mean ± SD","[1]; all patients, N=172",274 ± 87 ng/mL
same,"concentration of ICAM-1s, Mean ± SD","[1]; both concomitant drugs, N=20",247 ± 45 ng/mL
same,"concentration of ICAM-1s, Mean ± SD","[1]; concomitant beta-blockers, N=30",281 ± 58 ng/mL
same,"concentration of ICAM-1s, Mean ± SD","[1]; concomitant statins, N=38",277 ± 70 ng/mL
same,"concentration of ICAM-1s, Mean ± SD","[1]; former smokers, N=59",277 ± 67 ng/mL
same,"concentration of ICAM-1s, Mean ± SD","[1]; men, N=117",264 ± 58 ng/mL
same,"concentration of ICAM-1s, Mean ± SD","[1]; no concomitant medication, N=78",276 ± 112 ng/mL
same,"concentration of ICAM-1s, Mean ± SD","[1]; non-smokers, N=81",262 ± 74 ng/mL
same,"concentration of ICAM-1s, Mean ± SD","[1]; smokers, N=32",297 ± 138 ng/mL
same,"concentration of ICAM-1s, Mean ± SD","[1]; women, N=55",293 ± 128 ng/mL
same,consumption of sublingual nitro compounds,[2]; [3],decreased
same,number of angina attacks,[2]; [3],decreased
same,antianginal effects,[2]; after one year,maintained or even improved
